Source: the kinase profiling compilation of Christmann-Franck et al. (2016)

Experiments:
Test in all cases: radiometric filter-binding kinase assay
[1] = target: MAPK8 (human) (UniProt P45983)
[2] = target: PAK7 (human) (UniProt Q9P286)
[3] = tested on: PRKAA1 or PRKAA2 (rat); details: accession and sequence are those of the human protein
[4] = target: PRKCA (human) (UniProt P17252)
[5] = target: NEK2 (human) (UniProt P51955)
[6] = target: DYRK2 (human) (UniProt Q92630)
[7] = tested on: SGK1 (human), O00141 [S422D]
SGK1 (human), O00141 [S422D], sequence (O00141 whole entry S422D, looked up): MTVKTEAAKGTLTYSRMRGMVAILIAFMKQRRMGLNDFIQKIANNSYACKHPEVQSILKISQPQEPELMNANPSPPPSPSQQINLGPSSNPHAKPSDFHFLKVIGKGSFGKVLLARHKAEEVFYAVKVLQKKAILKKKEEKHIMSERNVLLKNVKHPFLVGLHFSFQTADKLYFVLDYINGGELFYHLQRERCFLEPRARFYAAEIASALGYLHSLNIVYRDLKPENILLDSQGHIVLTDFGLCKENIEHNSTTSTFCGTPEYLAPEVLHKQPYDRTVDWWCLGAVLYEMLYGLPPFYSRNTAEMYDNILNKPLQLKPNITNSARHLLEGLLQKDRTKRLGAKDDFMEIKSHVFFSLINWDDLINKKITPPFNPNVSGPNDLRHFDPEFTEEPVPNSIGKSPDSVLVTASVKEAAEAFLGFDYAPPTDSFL

[8] = target: PRKACA (human) (UniProt P17612)
[9] = target: BRSK2 (human) (UniProt Q8IWQ3)
[10] = target: MST4 (human) (UniProt Q9P289)
[11] = target: IKBKE (human) (UniProt Q14164)
IKBKE (human), sequence (Q14164 whole entry, looked up): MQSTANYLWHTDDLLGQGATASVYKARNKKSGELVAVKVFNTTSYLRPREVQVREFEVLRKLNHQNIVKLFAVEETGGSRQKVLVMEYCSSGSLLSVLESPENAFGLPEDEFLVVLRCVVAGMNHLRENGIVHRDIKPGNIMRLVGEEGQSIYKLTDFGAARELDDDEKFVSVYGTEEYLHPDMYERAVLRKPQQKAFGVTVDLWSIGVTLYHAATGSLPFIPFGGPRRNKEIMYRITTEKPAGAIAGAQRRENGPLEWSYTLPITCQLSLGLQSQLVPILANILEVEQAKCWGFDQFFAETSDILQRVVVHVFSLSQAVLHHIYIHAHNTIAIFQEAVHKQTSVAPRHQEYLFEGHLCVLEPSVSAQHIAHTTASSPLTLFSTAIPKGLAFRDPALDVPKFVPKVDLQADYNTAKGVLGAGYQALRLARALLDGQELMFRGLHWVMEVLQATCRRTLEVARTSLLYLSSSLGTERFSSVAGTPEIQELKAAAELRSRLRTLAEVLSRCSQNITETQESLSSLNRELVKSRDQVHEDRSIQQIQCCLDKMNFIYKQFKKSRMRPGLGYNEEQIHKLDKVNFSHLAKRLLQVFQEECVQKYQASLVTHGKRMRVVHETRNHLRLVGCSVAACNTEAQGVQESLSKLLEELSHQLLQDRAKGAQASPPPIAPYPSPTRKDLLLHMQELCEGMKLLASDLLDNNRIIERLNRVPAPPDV

[12] = target: CaMK1 (human) (UniProt Q14012)
CaMK1 (human), sequence (Q14012 whole entry, looked up): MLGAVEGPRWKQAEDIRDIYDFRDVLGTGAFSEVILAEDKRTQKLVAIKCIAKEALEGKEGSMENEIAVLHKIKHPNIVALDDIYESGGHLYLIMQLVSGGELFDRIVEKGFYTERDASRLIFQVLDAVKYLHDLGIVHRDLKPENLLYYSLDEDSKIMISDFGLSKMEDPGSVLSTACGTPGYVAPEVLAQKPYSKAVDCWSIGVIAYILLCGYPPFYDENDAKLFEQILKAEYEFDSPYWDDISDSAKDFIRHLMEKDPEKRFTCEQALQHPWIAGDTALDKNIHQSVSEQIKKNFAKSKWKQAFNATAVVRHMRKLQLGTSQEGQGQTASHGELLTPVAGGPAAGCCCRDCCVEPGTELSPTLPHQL

[13] = target: HIPK2 (human) (UniProt Q9H2X6)
HIPK2 (human), sequence (Q9H2X6 whole entry, looked up): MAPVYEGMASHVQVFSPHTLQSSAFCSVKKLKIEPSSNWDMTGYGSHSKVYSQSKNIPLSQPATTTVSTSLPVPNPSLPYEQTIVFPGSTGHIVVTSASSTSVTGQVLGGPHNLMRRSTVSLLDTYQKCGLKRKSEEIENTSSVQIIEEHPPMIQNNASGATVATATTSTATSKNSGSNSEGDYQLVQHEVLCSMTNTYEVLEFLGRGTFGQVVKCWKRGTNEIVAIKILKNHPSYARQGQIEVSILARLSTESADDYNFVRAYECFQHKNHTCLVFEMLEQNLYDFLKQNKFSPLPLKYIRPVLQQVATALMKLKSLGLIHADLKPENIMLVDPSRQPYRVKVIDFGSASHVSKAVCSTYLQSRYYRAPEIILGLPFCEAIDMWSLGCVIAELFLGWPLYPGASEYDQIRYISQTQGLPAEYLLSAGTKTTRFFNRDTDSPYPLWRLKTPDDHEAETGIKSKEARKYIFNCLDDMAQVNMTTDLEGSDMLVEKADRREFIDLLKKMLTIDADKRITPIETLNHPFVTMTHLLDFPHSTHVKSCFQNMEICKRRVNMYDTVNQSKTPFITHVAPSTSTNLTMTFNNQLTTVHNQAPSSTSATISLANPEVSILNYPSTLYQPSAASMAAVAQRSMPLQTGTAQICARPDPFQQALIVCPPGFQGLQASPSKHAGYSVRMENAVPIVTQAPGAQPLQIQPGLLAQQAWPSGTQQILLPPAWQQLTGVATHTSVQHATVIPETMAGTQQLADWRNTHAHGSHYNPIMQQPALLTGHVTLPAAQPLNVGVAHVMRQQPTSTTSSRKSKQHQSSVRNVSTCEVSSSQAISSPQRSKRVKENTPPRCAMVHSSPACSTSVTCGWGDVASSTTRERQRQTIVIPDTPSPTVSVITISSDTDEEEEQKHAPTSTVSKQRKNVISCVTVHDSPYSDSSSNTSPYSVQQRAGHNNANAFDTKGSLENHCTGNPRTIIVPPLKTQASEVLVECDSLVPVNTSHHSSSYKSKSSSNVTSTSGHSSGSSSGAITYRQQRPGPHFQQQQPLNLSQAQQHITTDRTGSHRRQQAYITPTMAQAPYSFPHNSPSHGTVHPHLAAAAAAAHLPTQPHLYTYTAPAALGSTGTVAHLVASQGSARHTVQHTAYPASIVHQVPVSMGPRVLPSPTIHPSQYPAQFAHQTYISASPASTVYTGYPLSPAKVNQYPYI

[14] = target: RPS6KA1 KD1 KD2 (human) (UniProt Q15418)
[15] = tested on: AKT1 (human), P31749 [S473D]
[16] = target: MKNK1 (human) (UniProt Q9BUB5)
MKNK1 (human), sequence (Q9BUB5 whole entry, looked up): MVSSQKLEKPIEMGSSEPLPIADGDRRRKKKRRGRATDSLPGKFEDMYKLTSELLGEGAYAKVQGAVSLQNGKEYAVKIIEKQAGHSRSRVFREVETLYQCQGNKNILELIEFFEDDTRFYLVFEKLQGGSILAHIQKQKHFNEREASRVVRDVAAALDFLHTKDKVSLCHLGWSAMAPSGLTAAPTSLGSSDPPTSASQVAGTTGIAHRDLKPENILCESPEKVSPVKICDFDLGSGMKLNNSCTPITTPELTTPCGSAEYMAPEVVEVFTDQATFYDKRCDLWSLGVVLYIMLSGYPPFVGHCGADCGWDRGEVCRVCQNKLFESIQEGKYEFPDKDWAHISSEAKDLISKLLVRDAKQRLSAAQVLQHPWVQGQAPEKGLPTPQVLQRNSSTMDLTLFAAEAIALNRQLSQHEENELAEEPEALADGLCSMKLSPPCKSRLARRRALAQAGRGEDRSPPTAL

[17] = target: CHEK2 (human) (UniProt O96017)
[18] = target: MAPK3 (human) (UniProt P27361)
[19] = target: EPHB3 (human) (UniProt P54753)
[20] = target: PLK1 (human) (UniProt P53350)
[21] = target: PAK4 (human) (UniProt O96013)
PAK4 (human), sequence (O96013 whole entry, looked up): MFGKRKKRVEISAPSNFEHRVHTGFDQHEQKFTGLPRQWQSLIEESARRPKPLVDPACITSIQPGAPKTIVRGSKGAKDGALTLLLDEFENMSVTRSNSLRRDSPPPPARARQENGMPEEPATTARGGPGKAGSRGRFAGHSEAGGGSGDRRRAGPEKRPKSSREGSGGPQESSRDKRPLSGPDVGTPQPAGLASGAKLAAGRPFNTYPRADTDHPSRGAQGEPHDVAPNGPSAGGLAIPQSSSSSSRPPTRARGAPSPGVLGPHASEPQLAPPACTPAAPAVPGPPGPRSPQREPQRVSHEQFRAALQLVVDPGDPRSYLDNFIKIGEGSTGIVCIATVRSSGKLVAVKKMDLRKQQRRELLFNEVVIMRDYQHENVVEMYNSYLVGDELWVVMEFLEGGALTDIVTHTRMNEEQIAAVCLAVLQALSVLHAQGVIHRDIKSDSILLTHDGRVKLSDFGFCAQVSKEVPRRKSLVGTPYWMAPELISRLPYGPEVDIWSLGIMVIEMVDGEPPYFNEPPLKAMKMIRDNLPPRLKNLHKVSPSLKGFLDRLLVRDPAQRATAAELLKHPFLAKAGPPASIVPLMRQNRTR

[22] = target: MAPK12 (human) (UniProt P53778)
MAPK12 (human), sequence (P53778 whole entry, looked up): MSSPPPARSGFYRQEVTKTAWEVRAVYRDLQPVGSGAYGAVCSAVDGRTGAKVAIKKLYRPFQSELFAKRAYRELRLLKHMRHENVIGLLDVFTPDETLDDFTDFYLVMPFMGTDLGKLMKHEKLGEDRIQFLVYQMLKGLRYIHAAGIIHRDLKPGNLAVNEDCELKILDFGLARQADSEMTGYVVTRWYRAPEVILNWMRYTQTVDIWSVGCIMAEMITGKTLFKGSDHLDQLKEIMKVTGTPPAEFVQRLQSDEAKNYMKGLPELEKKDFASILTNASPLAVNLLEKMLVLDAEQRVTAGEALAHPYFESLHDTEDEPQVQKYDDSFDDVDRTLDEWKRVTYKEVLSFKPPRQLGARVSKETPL

[23] = target: SYK (human) (UniProt P43405)
[24] = target: DYRK1A (human) (UniProt Q13627)
[25] = target: MAPK13 (human) (UniProt O15264)
MAPK13 (human), sequence (O15264 whole entry, looked up): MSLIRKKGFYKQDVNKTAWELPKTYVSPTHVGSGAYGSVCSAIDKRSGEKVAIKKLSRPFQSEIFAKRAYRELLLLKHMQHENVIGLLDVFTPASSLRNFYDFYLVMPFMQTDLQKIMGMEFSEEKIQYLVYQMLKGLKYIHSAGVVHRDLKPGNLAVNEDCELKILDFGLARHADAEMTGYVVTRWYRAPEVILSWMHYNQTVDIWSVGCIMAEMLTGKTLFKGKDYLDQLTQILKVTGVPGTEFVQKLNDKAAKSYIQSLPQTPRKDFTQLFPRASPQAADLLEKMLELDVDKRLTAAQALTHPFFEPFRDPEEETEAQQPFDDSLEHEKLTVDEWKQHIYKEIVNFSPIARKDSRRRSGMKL

[26] = target: MAPK1 (human) (UniProt P28482)

NEK2 (human), sequence (P51955 whole entry, looked up): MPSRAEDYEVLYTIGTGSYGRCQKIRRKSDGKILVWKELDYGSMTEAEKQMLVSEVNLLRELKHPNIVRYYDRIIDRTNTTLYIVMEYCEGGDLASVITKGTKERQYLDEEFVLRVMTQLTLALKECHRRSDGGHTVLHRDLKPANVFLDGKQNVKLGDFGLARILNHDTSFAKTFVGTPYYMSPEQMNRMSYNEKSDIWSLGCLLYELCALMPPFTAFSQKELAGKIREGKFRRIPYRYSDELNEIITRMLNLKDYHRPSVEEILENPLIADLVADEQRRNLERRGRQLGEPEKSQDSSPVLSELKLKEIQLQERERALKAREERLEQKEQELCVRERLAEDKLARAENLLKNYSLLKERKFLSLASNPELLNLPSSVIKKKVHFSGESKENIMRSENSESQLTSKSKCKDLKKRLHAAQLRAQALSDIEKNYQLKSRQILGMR

O=C1Nc2nc(-c3c(O)cccc3OCC3CC3)cc(C3CCCNC3)c2CO1 (stereo unspecified)
residual activity ([1]; compound 1.0 µM): 76%
residual activity ([1]; compound 10.0 µM): 61%
residual activity ([2]; compound 1.0 µM): 82%
residual activity ([2]; compound 10.0 µM): 72%
residual activity ([3]; compound 1.0 µM): 87%
residual activity ([3]; compound 10.0 µM): 54%
residual activity ([4]; compound 1.0 µM): 77%
residual activity ([4]; compound 10.0 µM): 31%
residual activity ([5]; compound 1.0 µM): 83%
residual activity ([5]; compound 10.0 µM): 81%
residual activity ([6]; compound 1.0 µM): 99%
residual activity ([6]; compound 10.0 µM): 77%
residual activity ([7]; compound 1.0 µM): 55%
residual activity ([7]; compound 10.0 µM): 13%
residual activity ([8]; compound 1.0 µM): 79%
residual activity ([8]; compound 10.0 µM): 65%
residual activity ([9]; compound 1.0 µM): 89%
residual activity ([9]; compound 10.0 µM): 45%
residual activity ([10]; compound 1.0 µM): 105%
residual activity ([10]; compound 10.0 µM): 85%
residual activity ([11]; compound 1.0 µM): 83%
residual activity ([11]; compound 10.0 µM): 74%
residual activity ([12]; compound 1.0 µM): 54%
residual activity ([12]; compound 10.0 µM): 13%
residual activity ([13]; compound 1.0 µM): 84%
residual activity ([13]; compound 10.0 µM): 34%
residual activity ([14]; compound 1.0 µM): 83%
residual activity ([14]; compound 10.0 µM): 46%
residual activity ([15]; compound 1.0 µM): 87%
residual activity ([15]; compound 10.0 µM): 55%
residual activity ([16]; compound 1.0 µM): 97%
residual activity ([16]; compound 10.0 µM): 74%
residual activity ([17]; compound 1.0 µM): 77%
residual activity ([17]; compound 10.0 µM): 46%
residual activity ([18]; compound 10.0 µM): 86%
residual activity ([19]; compound 1.0 µM): 89%
residual activity ([19]; compound 10.0 µM): 93%
residual activity ([20]; compound 1.0 µM): 83%
residual activity ([20]; compound 10.0 µM): 87%
residual activity ([21]; compound 1.0 µM): 89%
residual activity ([21]; compound 10.0 µM): 54%
residual activity ([22]; compound 1.0 µM): 85%
residual activity ([22]; compound 10.0 µM): 66%
residual activity ([23]; compound 1.0 µM): 106%
residual activity ([23]; compound 10.0 µM): 91%
residual activity ([24]; compound 1.0 µM): 99%
residual activity ([24]; compound 10.0 µM): 82%
residual activity ([25]; compound 1.0 µM): 88%
residual activity ([25]; compound 10.0 µM): 73%
residual activity ([26]; compound 1.0 µM): 81%
residual activity ([26]; compound 10.0 µM): 74%

Cc1cc(SCc2sc(-c3ccc(C(F)(F)F)cc3)nc2C)ccc1OCC(=O)O
residual activity ([1]; compound 1.0 µM): 83%
residual activity ([1]; compound 10.0 µM): 74%
residual activity ([2]; compound 1.0 µM): 97%
residual activity ([2]; compound 10.0 µM): 111%
residual activity ([3]; compound 1.0 µM): 94%
residual activity ([3]; compound 10.0 µM): 91%
residual activity ([4]; compound 1.0 µM): 96%
residual activity ([4]; compound 10.0 µM): 88%
residual activity ([5]; compound 1.0 µM): 94%
residual activity ([5]; compound 10.0 µM): 153%
residual activity ([6]; compound 1.0 µM): 103%
residual activity ([6]; compound 10.0 µM): 111%
residual activity ([7]; compound 1.0 µM): 111%
residual activity ([7]; compound 10.0 µM): 109%
residual activity ([8]; compound 1.0 µM): 110%
residual activity ([8]; compound 10.0 µM): 86%
residual activity ([9]; compound 1.0 µM): 91%
residual activity ([9]; compound 10.0 µM): 78%
residual activity ([10]; compound 1.0 µM): 104%
residual activity ([10]; compound 10.0 µM): 83%
residual activity ([11]; compound 1.0 µM): 92%
residual activity ([11]; compound 10.0 µM): 92%
residual activity ([12]; compound 1.0 µM): 95%
residual activity ([12]; compound 10.0 µM): 62%
residual activity ([13]; compound 1.0 µM): 101%
residual activity ([13]; compound 10.0 µM): 156%
residual activity ([14]; compound 1.0 µM): 106%
residual activity ([14]; compound 10.0 µM): 113%
residual activity ([15]; compound 1.0 µM): 107%
residual activity ([15]; compound 10.0 µM): 105%
residual activity ([16]; compound 1.0 µM): 89%
residual activity ([16]; compound 10.0 µM): 79%
residual activity ([17]; compound 1.0 µM): 81%
residual activity ([17]; compound 10.0 µM): 101%
residual activity ([18]; compound 1.0 µM): 115%
residual activity ([19]; compound 10.0 µM): 115%
residual activity ([20]; compound 1.0 µM): 75%
residual activity ([20]; compound 10.0 µM): 60%
residual activity ([21]; compound 1.0 µM): 87%
residual activity ([21]; compound 10.0 µM): 66%
residual activity ([22]; compound 1.0 µM): 108%
residual activity ([22]; compound 10.0 µM): 106%
residual activity ([23]; compound 1.0 µM): 103%
residual activity ([23]; compound 10.0 µM): 85%
residual activity ([24]; compound 1.0 µM): 87%
residual activity ([24]; compound 10.0 µM): 59%
residual activity ([25]; compound 1.0 µM): 102%
residual activity ([25]; compound 10.0 µM): 105%
residual activity ([26]; compound 1.0 µM): 100%
residual activity ([26]; compound 10.0 µM): 102%
